Experimental data taken from US20210393645A1, “TREATMENT FOR PROGRESSIVE MULTIPLE SCLEROSIS” (UTI LIMITED PARTNERSHIP, priority 2016, published 2021).
Where a name gives a salt, the structure may show the parent alone.

tested on: human neurons; assay: Iron (FeSO4) mediated neurotoxicity screening, MAP-2 positive neurons counted; type: cell-based; settings: not given
Procedure: Human neurons were isolated from brain tissues of therapeutically aborted 15-20 week old fetuses, in accordance with ethics approval of the University of Calgary ethics committee, after written informed consent of the pregnant donors. Neurons were isolated as previously described (Vecil et al., 2000) brain specimens were washed in phosphate buffered saline (PBS) to remove blood, followed by removal of meninges. […] Thereafter, the digestion was stopped by addition of 4 ml fetal calf serum (FCS). […] Cells were cultured in feeding medium of minimal essential medium (MEM) supplemented with 10% fetal bovine serum (FBS), 1 μM sodium pyruvate, 10 μM glutamine, 1× non-essential amino acids, 0.1% dextrose and 1% penicillin/streptomycin (all culture supplements from Invitrogen, Burlington, Canada). […] For experiments, the neuron-enriched cultures were retrypsinized and cells were plated in poly-L-ornithine pre-coated 96-well plates at a density of 100,000 cells/well in 100 μl of the complete medium supplemented with cytosine arabinoside. […] All conditions were performed in quadruplicates. A day later cells were fixed using 4% paraformaldehyde (PFA) and stored in PBS in 4° C.
Briefly, there were 80 compounds located in specific wells on each plate (e. g. B07). […] Each compound was supplied at a concentration of 10 mM dissolved in DMSO.
After filtering with a 0.2 μm filter, FeSO4 was added to cells in a final concentration of 25-50 μM in a volume of 50 μl medium to the cells. Rotenone was dissolved in dimethyl sulfoxide (DMSO) and used in a final concentration of 10 μM.
Staining was performed at room temperature. A blocking buffer was first introduced for 1 h followed by incubation with primary antibody overnight in 4° C.
Cell nuclei were stained with Hoechst S769121 (nuclear yellow). Cells were stored in 4° C. in the dark before imaging.
Images were taken using the automated ImageXpress® imaging system (Molecular Devices, Sunnyvale, Calif.) through a 10x objective microscope lens, displaying 4 or 9 sites per well. […] Cells were defined according to fluorescence intensity and size at different wavelengths. Data from all sites per well were averaged to one data point.
Neurons were pre-incubated with each compound for 1 h followed by application of FeSO4.

Structure (SMILES)	Drug % control (mean): number of neurons normalized to untreated control
N[C@@H]1C[C@H]1c1ccccc1.N[C@H]1C[C@@H]1c1ccccc1.O=S(=O)(O)O [TRANYLCYPROMINE SULFATE]	21.59%

same assay, conditions: Homo sapiens, Neuron, 24 h, read-out: Drug % control (mean): number of neurons normalized to untreated control

Structure (SMILES)	viability at 10 µM
CN[C@H](CC(C)C)C(=O)N[C@H]1C(=O)N[C@@H](CC(N)=O)C(=O)N[C@H]2C(=O)N[C@H]3C(=O)N[C@H](C(=O)N[C@H](C(=O)O)c4cc(O)cc(O)c4-c4cc3ccc4O)[C@H](O)c3ccc(c(Cl)c3)Oc3cc2cc(c3O[C@@H]2O[C@H](CO)[C@@H](O)[C@H](O)[C@H]2O[C@H]2C[C@](C)(N)[C@H](O)[C@H](C)O2)Oc2ccc(cc2Cl)[C@H]1O [VANCOMYCIN HYDROCHLORIDE]	11.7%
O=P1(N(CCCl)CCCl)NCCCO1 (centres unmarked) [CYCLOPHOSPHAMIDE HYDRATE]	6.39%
CC[C@H](C)C(=O)O[C@H]1C[C@@H](C)C=C2C=C[C@H](C)[C@H](CC[C@@H]3C[C@@H](O)CC(=O)O3)[C@H]21 [LOVASTATIN]	32.2%
COc1cc2c(c(OC)c1OC)-c1ccc(OC)c(=O)cc1[C@@H](NC(C)=O)CC2 [COLCHICINE]	3.12%
Cn1c(=O)c2[nH]cnc2n(C)c1=O [THEOPHYLLINE]	23.3%
COc1cc(NC(C)CCCN)c2ncccc2c1 (centres unmarked) [PRIMAQUINE DIPHOSPHATE]	89.1%

same assay, conditions: Homo sapiens, Neuron; drug 10 μM 1 h before FeSO4 25 or 50 μM; MAP-2 neurons after 24 h; read-out: Drug % control (mean): number of neurons normalized to untreated control

Structure (SMILES)	viability at 10 µM
CN(C)CCc1c[nH]c2ccc(CS(=O)(=O)N3CCCC3)cc12 [ALMOTRIPTAN]	94.4%
Cc1c(Cl)cccc1Nc1ccccc1C(=O)O [TOLFENAMIC ACID]	40.3%
CC(=O)/N=c1/sc(S(N)(=O)=O)nn1C [METHAZOLAMIDE]	54.3%
OCCOCCN1CCN(C(c2ccccc2)c2ccc(Cl)cc2)CC1 (centres unmarked) [HYDROXYZINE PAMOATE]	4.01%
O=C(O)c1cc2cc(Cl)ccc2[nH]1 [5-CHLOROINDOLE-2-CARBOXYLIC ACID]	37.3%
Nc1ccc(C(=O)O)cc1 [POTASSIUM p-AMINOBENZOATE]	44.5%
Cc1ccccc1N1C(=O)c2cc(S(N)(=O)=O)c(Cl)cc2NC1C (centres unmarked) [METOLAZONE]	69%
CN(C)CCC=C1c2ccccc2CCc2ccccc21 [AMITRIPTYLINE HYDROCHLORIDE]	34.8%
O=C1CC[C@@]2(O)[C@H]3Cc4ccc(O)c5c4[C@@]2(CCN3CC2CC2)[C@H]1O5 [NALTREXONE HYDROCHLORIDE]	39.5%
O=C(CCCN1CCC(O)(c2ccc(Cl)cc2)CC1)c1ccc(F)cc1 [HALOPERIDOL]	6.12%
C=C[C@H]1C[N@@]2CC[C@H]1C[C@H]2[C@H](O)c1ccnc2ccc(OC)cc12 [QUININE SULFATE]	21.3%
Cc1ccc(S(=O)(=O)NC(=O)NN2CC3CCCC3C2)cc1 (centres unmarked) [GLICLAZIDE]	47.3%
NC12CC3CC(CC(C3)C1)C2 [AMANTADINE HYDROCHLORIDE]	52.6%
CCCc1cc(=O)[nH]c(=S)[nH]1 [PROPYLTHIOURACIL]	35.9%
N=C(N)NC(=O)c1nc(Cl)c(N)nc1N [AMILORIDE HYDROCHLORIDE]	37.1%
CN(C)[C@@H]1C(O)=C(C(N)=O)C(=O)[C@@]2(O)C(O)=C3C(=O)c4c(O)cccc4[C@@](C)(O)[C@H]3C[C@@H]12 [TETRACYCLINE HYDROCHLORIDE]	25%
C[C@H](CCC(=O)O)[C@H]1CC[C@H]2[C@@H]3[C@@H](O)C[C@@H]4C[C@H](O)CC[C@]4(C)[C@H]3CC[C@]12C [URSODIOL]	24.6%
CN(CCOc1ccc(CC2SC(=O)NC2=O)cc1)c1ccccn1 (centres unmarked) [ROSIGLITAZONE]	77.6%
CCCNCC(O)COc1ccccc1C(=O)CCc1ccccc1 (centres unmarked) [PROPAFENONE HYDROCHLORIDE]	51.3%
O=C1CN(/N=C/c2ccc([N+](=O)[O-])o2)C(=O)N1 [NITROFURANTOIN]	17.8%
CC(=O)Nc1nnc(S(N)(=O)=O)s1 [ACETAZOLAMIDE]	23.6%
CN(C)C(=O)Oc1ccc[n+](C)c1 [PYRIDOSTIGMINE BROMIDE]	35.8%
N[C@@H](Cc1ccc(O)c(O)c1)C(=O)O [LEVODOPA]	81.2%
CN(C)c1nc(N(C)C)nc(N(C)C)n1 [ALTRETAMINE]	4.2%
CCC1(C)CC(=O)NC1=O (centres unmarked) [ETHOSUXIMIDE]	74.3%
CCOC(=O)[C@H](CCc1ccccc1)N[C@@H](C)C(=O)N1CCC[C@H]1C(=O)O [ENALAPRIL MALEATE]	41%
NNCCc1ccccc1 [PHENELZINE SULFATE]	46.7%

Structure (SMILES)	viability at 10 µM
NC(=O)N1c2ccccc2C=Cc2ccccc21 [CARBAMAZEPINE]	13.3%
NNC(=O)c1ccncc1 [ISONIAZID]	2.41%
O=C1NC(=O)C(c2ccccc2)(c2ccccc2)N1 [PHENYTOIN SODIUM]	30.1%
CC(C)N(CCC(C(N)=O)(c1ccccc1)c1ccccn1)C(C)C (centres unmarked) [DISOPYRAMIDE PHOSPHATE]	4.63%
CS(=O)(=O)OCCCCOS(C)(=O)=O [BUSULFAN]	13.3%
CC(C)NCC(O)COc1ccc(CC(N)=O)cc1 (centres unmarked) [ATENOLOL]	43.4%
CC(=O)N[C@@H](CS)C(=O)O [ACETYLCYSTEINE]	21.7%
CC(=O)Oc1ccc(C(c2ccc(OC(C)=O)cc2)c2ccccn2)cc1 [BISACODYL]	93.3%
Cc1cc(N)c2ccccc2[n+]1CCCCCCCCCC[n+]1c(C)cc(N)c2ccccc21 [DEQUALINIUM CHLORIDE]	10.5%
COC(=O)[C@@H]1[C@H]2C[C@H]3c4[nH]c5ccccc5c4CCN3C[C@@H]2CC[C@@H]1O [YOHIMBINE HYDROCHLORIDE]	100%
CCCC1O[C@@H]2C[C@H]3[C@@H]4CCC5=CC(=O)C=C[C@]5(C)[C@H]4[C@@H](O)C[C@]3(C)[C@]2(C(=O)CO)O1 (some centres unmarked) [BUDESONIDE]	70%
C[C@H]1COc2c(N3CCN(C)CC3)c(F)cc3c(=O)c(C(=O)O)cn1c23 [LEVOFLOXACIN]	56.4%
Cc1c(OCC(F)(F)F)ccnc1C[S+]([O-])c1nc2ccccc2[nH]1 (centres unmarked) [LANSOPRAZOLE]	63.9%
Cc1onc(-c2ccccc2Cl)c1C(=O)N[C@@H]1C(=O)N2[C@@H]1SC(C)(C)[C@@H]2C(=O)O [CLOXACILLIN SODIUM]	28.4%
CN[C@@H](C)[C@@H](O)c1ccccc1 [PSEUDOEPHEDRINE HYDROCHLORIDE]	26.7%
O=C(O)c1cc(-c2ccc(F)cc2F)ccc1O [DIFLUNISAL]	4.12%
CC(=O)Nc1ccc(O)cc1 [ACETAMINOPHEN]	35.1%
C=CCN1CC[C@]23c4c5ccc(O)c4O[C@H]2C(=O)CC[C@@]3(O)[C@H]1C5 [NALOXONE HYDROCHLORIDE]	69.5%
CCN(CC)CCNC(=O)c1cc(Cl)c(N)cc1OC [METOCLOPRAMIDE HYDROCHLORIDE]	37.9%
Cc1noc(NS(=O)(=O)c2ccc(N)cc2)c1C [SULFISOXAZOLE]	38.3%
Cc1cc(NS(=O)(=O)c2ccc(N)cc2)no1 [SULFAMETHOXAZOLE]	16.2%
CC[N+](C)(C)c1cccc(O)c1 [EDROPHONIUM CHLORIDE]	44%
O=C(c1ccccc1)c1ccc2n1CCC2C(=O)O (centres unmarked) [KETOROLAC TROMETHAMINE]	52.4%
Cc1cc(=O)n(-c2ccccc2)n1C [ANTIPYRINE]	2.11%
S=c1nc[nH]c2nc[nH]c12 [MERCAPTOPURINE]	1.73%
CN(Cc1cnc2nc(N)nc(N)c2n1)c1ccc(C(=O)N[C@@H](CCC(=O)O)C(=O)O)cc1 [METHOTREXATE]	43.3%

same assay, conditions: drug 10 μM 1 h before FeSO4 25 or 50 μM; MAP-2 neurons after 24 h

Structure (SMILES)	Drug % control (mean): number of neurons normalized to untreated control
CC(C)NCC(O)COc1cccc2ccccc12.Cl (racemic) [PROPRANOLOL HYDROCHLORIDE (+/−)]	66.49%
CN(C)CCOC(c1ccccc1)c1ccccc1.Cn1c(=O)c2[nH]c(Cl)nc2n(C)c1=O [DIMENHYDRINATE]	36.53%
CC(C)c1c(C(=O)Nc2ccccc2)c(-c2ccccc2)c(-c2ccc(F)cc2)n1CC[C@@H](O)C[C@@H](O)CC(=O)[O-].CC(C)c1c(C(=O)Nc2ccccc2)c(-c2ccccc2)c(-c2ccc(F)cc2)n1CC[C@@H](O)C[C@@H](O)CC(=O)[O-].[Ca+2] [ATORVASTATIN CALCIUM]	68.87%
CN(C)CC[C@@H](c1ccc(Cl)cc1)c1ccccn1.O=C(O)/C=C\C(=O)O [CHLORPHENIRAMINE(S) MALEATE]	52.32%
Cc1cn([C@H]2C[C@H](N=[N+]=[N-])[C@@H](CO)O2)c(=O)[nH]c1=O [ZIDOVUDINE [AZT]]	66.49%
